We go through 1 compound from patent US20180110824A1, “Macrocyclic Modulators of the Ghrelin Receptor” (Ocera Therapeutics, Inc., priority 2016, published 2018).

pEC50: −log10 of the molar value.

The test system of test [1] is gastric emptying in fasted rats. The experiment in a line: Gastric emptying in fasted rats (phenol red methylcellulose meal). It is filed as in vivo, rat. Conditions: i.v. As to the method:
To examine the effects of compounds of the invention in a model for gastroparesis, compounds were evaluated for possible effects on gastric emptying in fasted rats.
GHRP-6 and test samples were dissolved in vehicle of 9% HPBCD/0.9% NaCl. Immediately following oral administration of methylcellulose (2%) containing phenol red (0.05%) (2 mL/rat), test substances or vehicle (9% HPBCD/0.9% NaCl) were each administered intravenously (i.v.) at a dosing volume of 5 mL/kg.
Male Wistar rats were provided by LASCO (A Charles River Licensee Corporation, Taiwan). Space allocation for 6 animals was 45×23×15 cm. Animals were housed in APEC® cages and maintained in a controlled temperature (22° C.-24° C.) and humidity (60% -80%) environment with 12 h light, 12 h dark cycles for at least one week in the laboratory prior to being used. Free access to standard lab chow for rats (Lab Diet, Rodent Diet, PMI Nutrition International, USA) and tap water was granted. All aspects of this work including housing, experimentation and disposal of animals were performed in general accordance with the Guide for the Care and Use of Laboratory Animals (National Academy Press, Washington, D.C., 1996).
Test substances were each administered intravenously to a group of 5 O/N-fasted Wistar derived male rats weighing 200±20 g immediately after methylcellulose (2%) containing phenol red (0.05%) was administered orally at 2 mL/animal. The animals were then sacrificed 15 minutes later. The stomach was immediately removed, homogenized in 0.1 N NaOH (5 mL) and centrifuged. Following protein precipitation by 20% trichloroacetic acid (0.5 mL)and re-alkalization of the supernatant with 0.1 N NaOH, total phenol red remaining in the stomach was determined by a colorimetric method at 560 nm. A 30 percent or more (≥30%) increase in gastric emptying, detected as the decrease in phenol red concentration in the stomach relative to the vehicle control group, is considered significant.
• 1. Overnight-fasted rats (male Wistar, ˜200 g, N=5/group) were given a meal of methylcellulose (2%) by intragastric gavage. The meal was labeled with phenol red (0.05%). • 2. […] Animals were sacrificed 15 minutes later; the stomach was immediately removed and homogenized in 0.1 N NaOH and centrifuged. • 4. Total phenol red remaining in the stomach was quantified by a colorimetric method at 560 nm. • 5. A >30% increase in gastric emptying, detected based on the phenol red concentration in comparison to the control group, is considered significant.

For test [2], the system named is pulsatile GH release in rat. The experiment in a line: Growth hormone response to test compounds in conscious, freely-moving rats. It is filed as in vivo. On the procedure: The following method is employed to determine the temporal pattern and magnitude of the growth hormone (GH) response to test compounds, administered either systemically or centrally. […] Further results are presented in the Examples below.
Adult male Sprague Dawley rats (225-300 g) were purchased from Charles River Canada (St. Constant, Canada) and individually housed on a 12-h light, 12-h dark cycle (lights on, time: 0600-1800) in a temperature (22±1° C.) and humidity-controlled room. Purina rat chow (Ralston Purina Co., St Louis, Mo.) and tap water were freely available. For these studies, chronic intracerebroventricular (icv) and intracardiac venous cannulas were implanted under sodium pentobarbital (50 mg/kg, ip) anesthesia using known techniques. The placement of the icv cannula was verified by both a positive drinking response to icv carbachol (100 ng/10 μl) injection on the day after surgery and methylene blue dye at the time of sacrifice. After surgery, the rats were placed directly in isolation test chambers with food and water freely available until body weight returned to preoperative levels (usually within 5-7 d). During this time, the rats were handled daily to minimize any stress associated with handling on the day of the experiment. On the test day, food was removed 1.5 h before the start of sampling and was returned at the end. Free moving rats were iv injected with either test sample at various levels (3, 30, 300, 1000 μg/kg) or normal saline at two different time points during a 6-h sampling period. The times 1100 and 1300 were chosen because they reflect typical peak and trough periods of GH secretion, as previously documented. The human ghrelin peptide, (5 μg, Phoenix Pharmaceuticals, Inc., Belmont, Calif.) was used as a positive control in the experiments and was diluted in normal saline just before use. To assess the central actions of test compounds on pulsatile GH release, a 10-fold lower dose of the test sample or normal saline, was administered icv at the same time points, 1100 and 1300. Blood samples (0.35 mL) were withdrawn every 15 min over the 6-h sampling period (time: 1000-1600) from all animals. To document the rapidity of the GH response to the test compound, an additional blood sample was obtained 5 min after each injection. […]
Plasma GH concentrations were measured in duplicate by double antibody RIA using materials supplied by the NIDDK Hormone Distribution Program (Bethesda, Md.), The averaged plasma GH values for 5-6 rats per group are reported in terms of the rat GH reference preparation. […]
• 1. […] Blood samples are drawn at defined, 15-minute intervals throughout the test day and growth hormone (GH) measured directly by radioimmunoassay. • 6. […]

The next test has as its target T1, hGHS-R1a (Homo sapiens, UniProt Q92847).
T1 construct: expressed in transfected cells; host or cells: HEK293
The experiment in a line: hGHS-R1a receptor agonism and desensitization by FLIPR in HEK293 cells. It is filed as cell-based. As to the method:
• 1. Studies by FLIPR (Fluorometric Imaging Plate Reader, Molecular Devices). • 2. Assay performed on HEK293 cells expressing hGHS-R1a. • 3. […] A DC50 value is calculated.

T1 sequence (Q92847 whole entry): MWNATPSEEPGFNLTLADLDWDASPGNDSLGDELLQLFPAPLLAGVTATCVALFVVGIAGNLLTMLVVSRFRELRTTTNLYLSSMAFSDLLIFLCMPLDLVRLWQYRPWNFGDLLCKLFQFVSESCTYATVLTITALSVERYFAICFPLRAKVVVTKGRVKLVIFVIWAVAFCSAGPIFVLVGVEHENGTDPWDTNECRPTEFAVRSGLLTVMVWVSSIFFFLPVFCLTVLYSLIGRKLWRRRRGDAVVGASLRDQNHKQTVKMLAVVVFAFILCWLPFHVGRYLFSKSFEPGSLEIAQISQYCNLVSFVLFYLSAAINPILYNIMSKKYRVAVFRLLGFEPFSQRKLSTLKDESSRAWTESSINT

Take `CC1C(=O)NC(Cc2ccc(F)cc2)C(=O)NCCCc2ccccc2O[C@H](C)CNC(C2CC2)C(=O)N1C` (some centres unmarked) [compound 298]: in test [1] (FIGS. 14A and 14B), the “gastric emptying of a meal in naïve rat” value is given as “caused significant gastric emptying in a dose-dependent manner”. The “potency superior to metoclopramide in gastric emptying” value in test [1] (naïve rats, FIG. 14B) was ~100 fold. Moreover, the IGF-1 levels entry in test [2] (1000 μg/kg dose) was “No changes in IGF-1 levels”. The “effect on GH release” value in test [2] (FIG. 9) is “lack of effect on GH release”. The “effect on ghrelin-induced GH release” value in test [2] (dosed 10 min. prior to ghrelin, FIG. 12B) was “neither inhibits nor augments ghrelin-induced GH release”. The “pulsatile GH release in comparison to vehicle controls” value in test [2] (doses up to 1000 μg/kg i.v.) is given as “no significant difference in pulsatile GH release”. Further, the “desensitization potency lower than other ghrelin agonists (ghrelin peptide, capromorelin)” value at hGHS-R1a (FIG. 13C) is recorded as ~10 fold. For the same compound, at hGHS-R1a (FLIPR, HEK293), the “DC50 value less potent than the EC50 value” is listed as > 6 fold and the agonist type result is given as “full agonist”. Besides, at hGHS-R1a (FLIPR, HEK293 cells expressing hGHS-R1a, FIG. 13A), the negative logarithm of the EC50 (pEC50) was 8.30. For the same compound, on hGHS-R1a (read-out: DC50 (pre-treatment concentration that desensitizes the ghrelin EC100 response by 50%), 3 minutes pre-treatment, FLIPR, HEK293, FIG. 13B), the DC50 amounted to 32 nM.

As usually defined, the pEC50 is −log10 of the EC50, conventionally taken in molar units.
